Measurements: US7868135B2, “Compositions of lipopeptide antibiotic derivatives and methods of use thereof” (priority 2003, dated 2011)
Starred links: 1 amine or outer side, 2 acyl side, 3 side chain; linkers in the order of their positions; H or OH if unused. Positions of bridges follow the written chain, without caps; N, C: chain ends. Non-standard residues stand in square brackets, D forms with d. Residues, ends and D or L forms follow the SMILES beside them. ξ: configuration not given here. *: point of attachment. ξAbu(βξ-NH2) = CC(N[*:3])C(N[*:1])C(=O)[*:2]; Benzoyl(4-tBu) = CC(C)(C)c1ccc(C(=O)*)cc1; Pentadecanoyl = CCCCCCCCCCCCCCC(=O)*; ξAsp(βξ-Me) = CC(C(=O)O)C(N)C(=O)O; X12 = O=C(c1ccc(NN[*:1])cc1)[*:2]; Tridecanoyl = CCCCCCCCCCCCC(=O)*; X1 = O=C(Cc1ccc(N[*:1])cc1)[*:2]; ξAbu(3ξ-NH2) = CC(N)C(N)C(=O)O; Lauroyl = CCCCCCCCCCCC(=O)*; Decanoyl = CCCCCCCCCC(=O)*; 3Abz = Nc1cccc(C(=O)O)c1; Octanoyl = CCCCCCCC(=O)*; Pip = O=C(O)[CH]1CCCCN1; ξD = NC(CC(=O)O)C(=O)O; ξPip = O=C(O)C1CCCCN1; ξV = CC(C)C(N)C(=O)O; ξP = O=C(O)C1CCCN1; OtBu = CC(C)(C)O*

System: Staphylococcus aureus (MSSA)
Details: 24 h
Summary of the method: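 Broth microdilution MIC per NCCLS M7-A6 with doubling serial dilutions, in cation-adjusted Mueller-Hinton broth supplemented with 0.625 mM calcium.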

| Compound | MIC |
| --- | --- |
| CCCCCCCCCCCCCCC(=O)NC(CC(=O)O)C(=O)NC1C(=O)N2CCCCC2C(=O)NC(C(C)C(=O)O)C(=O)NC(CC(=O)O)C(=O)NCC(=O)NC(CC(=O)O)C(=O)NCC(=O)NC(C(C)NC(=O)[C@@H](N)CC(N)=O)C(=O)NC(C(C)C)C(=O)N2CCCC2C(=O)NC1C (stereo partly shown) [Compound 38, C15-Amphomycin-9-Asn] | 2 µg/mL |
| CCCCCCCCCCCCC(=O)N[C@@H](CC(=O)OC)C(=O)NC(CC(=O)O)C(=O)NC1C(=O)N2CCCCC2C(=O)NC(C(C)C(=O)O)C(=O)NC(CC(=O)O)C(=O)NCC(=O)NC(CC(=O)O)C(=O)NCC(=O)NC(C(C)N)C(=O)NC(C(C)C)C(=O)N2CCCC2C(=O)NC1C (stereo partly drawn) [Compound 311, C13-(Asp-(OMe))-Amphomycin] (Tridecanoyl-D(OMe)[ξD][ξAbu(βξ-NH2)][ξPip][ξAsp(βξ-Me)][ξD]G[ξD]G[ξAbu(3ξ-NH2)][ξV][ξP]; lactam 3-C) | 8 µg/mL |
| CCCCCCCCCCCCCCC(=O)NC(CC(=O)O)C(=O)NC1C(=O)N2CCCCC2C(=O)NC(C(C)C(=O)O)C(=O)NC(CC(=O)O)C(=O)NCC(=O)NC(CC(=O)O)C(=O)NCC(=O)NC(C(C)NC(=O)CNC(=O)CCC(=O)O)C(=O)NC(C(C)C)C(=O)N2CCCC2C(=O)NC1C (stereo not shown) [Compound 48, C15-Amphomycin-9-Gly-Suc] | 8 µg/mL |
| CCCCCCCCCCCCCCC(=O)NC(CC(=O)O)C(=O)NC1C(=O)N2CCCCC2C(=O)NC(C(C)C(=O)O)C(=O)NC(CC(=O)O)C(=O)NCC(=O)NC(CC(=O)O)C(=O)NCC(=O)NC(C(C)NC(=O)[C@@H](N)Cc2ccccc2)C(=O)NC(C(C)C)C(=O)N2CCCC2C(=O)NC1C (stereo partly shown) [Compound 341, C15-Amphomycin-9-Phe] | >64 µg/mL |
| CCCCCCCCCCCC(=O)NNc1ccc(C(=O)NC(CC(=O)O)C(=O)NC2C(=O)N3CCCCC3C(=O)NC(C(C)C(=O)O)C(=O)NC(CC(=O)O)C(=O)NCC(=O)NC(CC(=O)O)C(=O)NCC(=O)NC(C(C)N)C(=O)NC(C(C)C)C(=O)N3CCCC3C(=O)NC2C)cc1 (stereo not drawn) [Compound 21, C12-p-Hydrazinobenzoic Acid-Amphomycin] (Lauroyl-[X12]D[ξAbu(βξ-NH2)][Pip][ξAsp(βξ-Me)]DGDG[ξAbu(3ξ-NH2)]VP; lactam 3-C; configuration not given here) | 1 µg/mL |
| CC(C)C1NC(=O)C(C(C)N)NC(=O)CNC(=O)C(CC(=O)O)NC(=O)CNC(=O)C(CC(=O)O)NC(=O)C(C(C)C(=O)O)NC(=O)C2CCCCN2C(=O)C(NC(=O)C(CC(=O)O)NC(=O)c2ccc(C(C)(C)C)cc2)C(C)NC(=O)C2CCCN2C1=O (stereo not drawn) [Compound 326, (4-Tbutylbenzoyl)-Amphomycin] ({Benzoyl(4-tBu)}-D[ξAbu(βξ-NH2)][Pip][ξAsp(βξ-Me)]DGDG[ξAbu(3ξ-NH2)]VP; lactam 2-C; configuration not given here) | >64 µg/mL |
| CCCCCCCCCCCCCCC(=O)NC(CC(=O)O)C(=O)NC1C(=O)N2CCCCC2C(=O)NC(C(C)C(=O)O)C(=O)NC(CC(=O)O)C(=O)NCC(=O)NC(CC(=O)O)C(=O)NCC(=O)NC(C(C)NC(=O)[C@@H](N)CCc2ccccc2)C(=O)NC(C(C)C)C(=O)N2CCCC2C(=O)NC1C (stereo partly shown) [Compound 32, C15-Amphomycin-9-hPhe] | 8 µg/mL |
| CCCCCCCCCCCCCCC(=O)NC(CC(=O)O)C(=O)NC1C(=O)N2CCCCC2C(=O)NC(C(C)C(=O)O)C(=O)NC(CC(=O)O)C(=O)NCC(=O)NC(CC(=O)O)C(=O)NCC(=O)NC(C(C)NC(=O)[C@@H](N)CCC(N)=O)C(=O)NC(C(C)C)C(=O)N2CCCC2C(=O)NC1C (stereo partly shown) [Compound 43, C15-Amphomycin-9-Gln] | 8 to 16 µg/mL |
| CCCCCCCCCC(=O)Nc1cccc(C(=O)NC(CC(=O)O)C(=O)NC2C(=O)N3CCCCC3C(=O)NC(C(C)C(=O)O)C(=O)NC(CC(=O)O)C(=O)NCC(=O)NC(CC(=O)O)C(=O)NCC(=O)NC(C(C)N)C(=O)NC(C(C)C)C(=O)N3CCCC3C(=O)NC2C)c1 (stereo not drawn) [Compound 293, C10-(M-Aminobenzoyl)-Amphomycin] ({Decanoyl-3Abz}-D[ξAbu(βξ-NH2)][Pip][ξAsp(βξ-Me)]DGDG[ξAbu(3ξ-NH2)]VP; lactam 2-C; configuration not given here) | 2 µg/mL |
| CCCCCCCCCCCCCCC(=O)NC(CC(=O)O)C(=O)NC1C(=O)N2CCCCC2C(=O)NC(C(C)C(=O)O)C(=O)NC(CC(=O)O)C(=O)NCC(=O)NC(CC(=O)O)C(=O)NCC(=O)NC(C(C)NC(=O)CNC(=O)[C@@H](N)CCCN)C(=O)NC(C(C)C)C(=O)N2CCCC2C(=O)NC1C (stereo partly shown) [Compound 153, C15-Amphomycin-9-Gly-Orn] | 2 µg/mL |
| CCCCCCCC(=O)Nc1ccc(CC(=O)NC(CC(=O)O)C(=O)NC2C(=O)N3CCCCC3C(=O)NC(C(C)C(=O)O)C(=O)NC(CC(=O)O)C(=O)NCC(=O)NC(CC(=O)O)C(=O)NCC(=O)NC(C(C)N)C(=O)NC(C(C)C)C(=O)N3CCCC3C(=O)NC2C)cc1 (stereo not drawn) [Compound 104, C8-(p-Apa)-Amphomycin] (Octanoyl-[X1]D[ξAbu(βξ-NH2)][Pip][ξAsp(βξ-Me)]DGDG[ξAbu(3ξ-NH2)]VP; lactam 3-C; configuration not given here) | 2 µg/mL |
| CCCCCCCCCCCCCCC(=O)NC(CC(=O)O)C(=O)NC1C(=O)N2CCCCC2C(=O)NC(C(C)C(=O)O)C(=O)NC(CC(=O)O)C(=O)NCC(=O)NC(CC(=O)O)C(=O)NCC(=O)NC(C(C)NC(=O)CNC(=O)CNC(=O)CN)C(=O)NC(C(C)C)C(=O)N2CCCC2C(=O)NC1C (stereo not drawn) [Compound 33, C15-Amphomycin-9-Gly-Gly-Gly] | 0.5 to 1 µg/mL |
| CCCCCCCCCCCCCCC(=O)N[C@@H](CC(=O)OC(C)(C)C)C(=O)NC(CC(=O)O)C(=O)NC1C(=O)N2CCCCC2C(=O)NC(C(C)C(=O)O)C(=O)NC(CC(=O)O)C(=O)NCC(=O)NC(CC(=O)O)C(=O)NCC(=O)NC(C(C)N)C(=O)NC(C(C)C)C(=O)N2CCCC2C(=O)NC1C (stereo partly drawn) [Compound 112, C15-[Asp-(OtBu)]-Amphomycin] (Pentadecanoyl-D(OtBu)[ξD][ξAbu(βξ-NH2)][ξPip][ξAsp(βξ-Me)][ξD]G[ξD]G[ξAbu(3ξ-NH2)][ξV][ξP]; lactam 3-C) | 0.5 µg/mL |
| CCCCCCCCNC(=O)NC(CC(=O)O)C(=O)NC1C(=O)N2CCCCC2C(=O)NC(C(C)C(=O)O)C(=O)NC(CC(=O)O)C(=O)NCC(=O)NC(CC(=O)O)C(=O)NCC(=O)NC(C(C)N)C(=O)NC(C(C)C)C(=O)N2CCCC2C(=O)NC1C (stereo not shown) [Compound 252, CH3—(CH2)7—NH—C(═O)-Amphomycin] | 32 µg/mL |

Same assay, conditions: S. aureus (MSSA), CAMHB supplemented with 0.625 mM calcium, 24 hours at about 37° C.; a range = compound tested multiple times

| Compound | MIC |
| --- | --- |
| CCCCCCCCCCCCCC(=O)NC(CC(=O)O)C(=O)NC1C(=O)N2CCCCC2C(=O)NC(C(C)C(=O)O)C(=O)NC(CC(=O)O)C(=O)NCC(=O)NC(CC(=O)O)C(=O)NCC(=O)NC(C(C)NC(=O)CNC(=O)[C@@H](N)CCCCN)C(=O)NC(C(C)C)C(=O)N2CCCC2C(=O)NC1C (stereo partly shown) [Compound 125, C14-Amphomycin-9-Gly-Lys] | 125/1-2 μg/mL |
| C12-Amphomycin-9-gDab [Compound 138] | 138/32 μg/mL |
| Lys-Gly-Amphomycin-9-C13 [Compound 332] | >64 µg/mL |
| CCCCCCCCCCCCCC(=O)NC(CC(=O)O)C(=O)NC1C(=O)N2CCCCC2C(=O)NC(C(C)C(=O)O)C(=O)NC(CC(=O)O)C(=O)NCC(=O)NC(CC(=O)O)C(=O)NCC(=O)NC(C(C)NC(=O)[C@@H](N)CN)C(=O)NC(C(C)C)C(=O)N2CCCC2C(=O)NC1C (stereo partly shown) [Compound 140, C14-Amphomycin-9-Dap] | 140/32 μg/mL |
| CCCCCCCCCCCC(=O)NC(CC(=O)O)C(=O)NC1C(=O)N2CCCCC2C(=O)NC(C(C)C(=O)O)C(=O)NC(CC(=O)O)C(=O)NCC(=O)NC(CC(=O)O)C(=O)NCC(=O)NC(C(C)NC(=O)CCN)C(=O)NC(C(C)C)C(=O)N2CCCC2C(=O)NC1C (stereo not drawn) [Compound 73, C12-Amphomycin-9-(β-Ala)] | 73/2-4 μg/mL |
